Patent publication US4753953A, “Pyridonecarboxylic acid derivatives and antibacterial pharmaceutical compositions thereof” (priority 1985, dated 1988)
Values after ≈ are worked out from the molar mass of the structure shown. Where two headings read alike, the source gives them in different places.

How the values were obtained:
[1] = system: Peptostreptococcus anaerobius KYA 27337; test: MIC, in vitro antibacterial activity (standard strains); assay type: cell-based; conditions: Peptostreptococcus anaerobius, KYA27337; 10^6 cells/ml; Gram +; read-out: MIC
F. necrophorum S-45 = test: as above; assay type: cell-based; conditions: Fusobacterium necrophorum, S45; 10^6 cells/ml; Gram -; read-out: MIC
[2] = system: Salmonella enteritidis IID 604; test: as above; assay type: cell-based; conditions: Salmonella enterica; 10^6 cells/ml; Gram -; read-out: MIC
[3] = system: Citrobacter freundii IID 976; test: as above; assay type: cell-based; conditions: Citrobacter freundii, IID976; 10^6 cells/ml; Gram -; read-out: MIC
S. pneumoniae IID 552 = test: as above; assay type: cell-based; conditions: Streptococcus pneumoniae, IID552; 10^6 cells/ml; Gram +; read-out: MIC
E. coli ML 4707 = test: as above; assay type: cell-based, Escherichia coli; conditions: Escherichia coli
[4] = system: Yersinia enterocolitica IID 981; test: as above; assay type: cell-based; conditions: Yersinia enterocolitica, IID981; 10^6 cells/ml; Gram -; read-out: MIC
[5] = system: Propionibacterium acens 11828; test: as above; assay type: cell-based; conditions: Propionibacterium, 11828; 10^6 cells/ml; Gram +; read-out: MIC
S. epidermidis IID 866 = test: as above; assay type: cell-based; conditions: Staphylococcus epidermidis, IID866; 10^6 cells/ml; Gram +; read-out: MIC
C. perfringens KYA 13123 = test: microbe, parasite or virus in culture; assay type: cell-based; conditions: Clostridium perfringens, KYA13123
[6] = system: Veillonella parvula KYA 10790; test: MIC, in vitro antibacterial activity (standard strains); assay type: cell-based; conditions: Veillonella parvula, KYA10790; 10^6 cells/ml; Gram -; read-out: MIC
[7] = system: Acinetobacter anitratus IID 876; test: as above; assay type: cell-based; conditions: Acinetobacter calcoaceticus, IID876; 10^6 cells/ml; Gram -; read-out: MIC
[8] = system: Alcaligenes faecalis 0114002; test: as above; assay type: cell-based; conditions: Alcaligenes faecalis, 0114002; 10^6 cells/ml; Gram -; read-out: MIC
E. coli ATCC 10536 = test: as above; assay type: cell-based, Escherichia coli; conditions: Escherichia coli, ATCC10536; 10^6 cells/ml; Gram -; read-out: MIC
[9] = system: Bacteroides fragilis GM 7000; test: as above; assay type: cell-based; conditions: Bacteroides fragilis, GM7000; 10^6 cells/ml; Gram -; read-out: MIC
E. limosum KYA 8486 = test: as above; assay type: cell-based; conditions: Eubacterium limosum, KYA8486; 10^6 cells/ml; Gram +; read-out: MIC
C. ramosum = test: as above; assay type: cell-based; conditions: Thomasclavelia ramosa; 10^6 cells/ml; Gram +; read-out: MIC
B. distasonis 8503 = test: as above; assay type: cell-based; conditions: Parabacteroides distasonis, 8503; 10^6 cells/ml; Gram -; read-out: MIC
[10] = system: Proteus vulgaris IFO 3167; test: as above; assay type: cell-based; conditions: Proteus vulgaris, IFO3167; 10^6 cells/ml; Gram -; read-out: MIC
Shigella sonnei IID 969 = test: as above; assay type: cell-based; conditions: Shigella sonnei, IID969; 10^6 cells/ml; Gram -; read-out: MIC
Protocol: Minimal inhibitory concentrations (MICs) were determined in accordance with the method recommended by Japan Society of Chemotherapy.

B. fragilis 25285 = test: as above; assay type: cell-based, Bacteroides fragilis; conditions: Bacteroides fragilis, 25285; 10^6 cells/ml; Gram -; read-out: MIC
S. aureus Smith = test: as above; assay type: cell-based, Staphylococcus aureus; conditions: Staphylococcus aureus; 10^6 cells/ml; Gram +; read-out: MIC
P. cepacia GIFU 518 = test: as above; assay type: cell-based; conditions: Burkholderia cepacia, GIFU518
F. varium KYA 8501 = test: as above; assay type: cell-based; conditions: Fusobacterium varium, KYA8501; 10^6 cells/ml; Gram -; read-out: MIC
[11] = system: Staphylococcus aureus 209 P; test: as above; assay type: cell-based; conditions: Staphylococcus aureus, 209P; 10^6 cells/ml; Gram +; read-out: MIC
[12] = system: Streptococcus pyogenes (S-8); test: as above; assay type: cell-based; conditions: Streptococcus pyogenes; 10^6 cells/ml; Gram +; read-out: MIC
[13] = system: Pseudomonas aeruginosa V-1; test: as above; assay type: cell-based; conditions: Pseudomonas aeruginosa, V1; 10^6 cells/ml; Gram -; read-out: MIC
K. pneumoniae 1-220S = test: as above; assay type: cell-based, Klebsiella pneumoniae; conditions: Klebsiella pneumoniae, 1220S; 10^6 cells/ml; Gram -; read-out: MIC
[14] = system: Fusobacterium mortiferum 4249; test: as above; assay type: cell-based; conditions: Fusobacterium mortiferum, 4249; 10^6 cells/ml; Gram -; read-out: MIC
B. fragilis 0558 = test: as above; assay type: cell-based, Bacteroides fragilis; conditions: Bacteroides fragilis, 0558; 10^6 cells/ml; Gram -; read-out: MIC
[15] = system: Bacillus subtilis PCI 219; test: as above; assay type: cell-based; conditions: Bacillus subtilis, PCI219; 10^6 cells/ml; Gram +; read-out: MIC
E. faecalis IID 682 = test: as above; assay type: cell-based; conditions: Enterococcus faecalis, IID682; 10^6 cells/ml; Gram +; read-out: MIC
[16] = ML4707, 10^6 cells/ml, Gram -, Table 1, read-out: MIC

Compound | MIC [1] | MIC (F. necrophorum S-45) | MIC [2] | MIC [3] | MIC [4] | MIC [5] | MIC (S. epidermidis IID 866) | MIC (C. perfringens KYA 13123) | MIC [6] | MIC [7] | MIC [8] | MIC (E. coli ATCC 10536) | MIC [9] | MIC (E. limosum KYA 8486) | MIC (C. ramosum) | MIC (B. distasonis 8503) | MIC [10] | MIC (Shigella sonnei IID 969) | MIC (B. fragilis 25285) | MIC (S. aureus Smith) | further results
CC1CN(c2c(F)cc3c(=O)c(C(=O)O)cn(C4CC4)c3c2Cl)CC1N (stereo not shown) [Example 7, 7-(3-Amino-4-methyl-1-pyrrolidinyl)-8-chloro-1-cyclopropyl-6-fluoro-1,4-dihydro-4-oxo-3-quinolinecarboxylic acid] | 0.2 µg/mL (≈ 0.527 µM) | 0.2 µg/mL (≈ 0.527 µM) | 0.025 µg/mL (≈ 0.0658 µM) | 0.025 µg/mL (≈ 0.0658 µM) | 0.025 µg/mL (≈ 0.0658 µM) | 0.78 µg/mL (≈ 2.05 µM) | 0.05 µg/mL (≈ 0.132 µM) | 0.1 µg/mL (≈ 0.263 µM) | 0.1 µg/mL (≈ 0.263 µM) | 0.025 µg/mL (≈ 0.0658 µM) | 0.1 µg/mL (≈ 0.263 µM) | 0.0125 µg/mL (≈ 0.0329 µM) | 0.1 µg/mL (≈ 0.263 µM) | 0.2 µg/mL (≈ 0.527 µM) | 0.78 µg/mL (≈ 2.05 µM) | 0.39 µg/mL (≈ 1.03 µM) | 0.0125 µg/mL (≈ 0.0329 µM) | 0.0063 µg/mL (≈ 0.0166 µM) | 0.05 µg/mL (≈ 0.132 µM) | 0.05 µg/mL (≈ 0.132 µM) | MIC (S. pneumoniae IID 552): 0.1 µg/mL (≈ 0.263 µM); MIC (E. coli ML 4707; [16]): 0.0125 µg/mL (≈ 0.0329 µM); MIC (P. cepacia GIFU 518): 0.2 µg/mL (≈ 0.527 µM); MIC (F. varium KYA 8501): 0.78 µg/mL (≈ 2.05 µM); MIC [11]: 0.025 µg/mL (≈ 0.0658 µM); MIC [12]: 0.1 µg/mL (≈ 0.263 µM); MIC [13]: 0.2 µg/mL (≈ 0.527 µM); MIC (K. pneumoniae 1-220S): 0.05 µg/mL (≈ 0.132 µM); MIC [14]: 0.2 µg/mL (≈ 0.527 µM); MIC (B. fragilis 0558): 0.05 µg/mL (≈ 0.132 µM); MIC [15]: 0.0125 µg/mL (≈ 0.0329 µM); MIC (E. faecalis IID 682): 0.1 µg/mL (≈ 0.263 µM)
CC1CN(c2c(F)cc3c(=O)c(C(=O)O)cn(C4CC4)c3c2Cl)CC1CN (stereo not shown) [Example 1, 7-(3-Aminomethyl-4-methyl-1-pyrrolidinyl)-8-chloro-1-cyclopropyl-6-fluoro-1,4-dihydro-4-oxo-3-quinolinecarboxylic acid] | ≤ 0.05 µg/mL | 0.1 µg/mL (≈ 0.254 µM) | 0.05 µg/mL (≈ 0.127 µM) | 0.05 µg/mL (≈ 0.127 µM) | 0.05 µg/mL (≈ 0.127 µM) | 0.2 µg/mL (≈ 0.508 µM) | 0.0125 µg/mL (≈ 0.0317 µM) | ≤ 0.05 µg/mL | 0.1 µg/mL (≈ 0.254 µM) | 0.05 µg/mL (≈ 0.127 µM) | 0.2 µg/mL (≈ 0.508 µM) | 0.025 µg/mL (≈ 0.0635 µM) | ≤ 0.1 µg/mL | 0.39 µg/mL (≈ 0.99 µM) | 0.2 µg/mL (≈ 0.508 µM) | 0.39 µg/mL (≈ 0.99 µM) | 0.05 µg/mL (≈ 0.127 µM) | 0.025 µg/mL (≈ 0.0635 µM) | ≤ 0.05 µg/mL | 0.0125 µg/mL (≈ 0.0317 µM) | MIC (S. pneumoniae IID 552): 0.0125 µg/mL (≈ 0.0317 µM); MIC (E. coli ML 4707; [16]): 0.025 µg/mL (≈ 0.0635 µM); MIC (P. cepacia GIFU 518): 0.39 µg/mL (≈ 0.99 µM); MIC (F. varium KYA 8501): 0.39 µg/mL (≈ 0.99 µM); MIC [11]: 0.0125 µg/mL (≈ 0.0317 µM); MIC [12]: 0.0125 µg/mL (≈ 0.0317 µM); MIC [13]: 0.1 µg/mL (≈ 0.254 µM); MIC (K. pneumoniae 1-220S): 0.05 µg/mL (≈ 0.127 µM); MIC [14]: ≤ 0.05 µg/mL; MIC (B. fragilis 0558): ≤ 0.05 µg/mL; MIC [15]: 0.0125 µg/mL (≈ 0.0317 µM); MIC (E. faecalis IID 682): 0.05 µg/mL (≈ 0.127 µM)
CC1CN(c2c(F)cc3c(=O)c(C(=O)O)cn(C4CC4)c3c2F)CC1N.Cl (stereo not shown) [Example 11, 7-(3-Amino-4-methyl-1-pyrrolidinyl)-1-cyclopropyl-6,8-difluoro-1,4-dihydro-4-oxo-3-quinolinecarboxylic acid hydrochloride] | 0.39 µg/mL | 0.39 µg/mL | 0.05 µg/mL | 0.05 µg/mL | 0.05 µg/mL | 3.13 µg/mL | 0.1 µg/mL | 0.39 µg/mL | 0.39 µg/mL | 0.05 µg/mL | 0.2 µg/mL | 0.025 µg/mL | 0.78 µg/mL | 0.78 µg/mL | 1.56 µg/mL | 0.78 µg/mL | 0.025 µg/mL | 0.025 µg/mL | 0.39 µg/mL | 0.05 µg/mL | MIC (E. coli ML 4707; ML4707): 0.0125 µg/mL; MIC (E. coli ML 4707; ML4707, Table 2, strain of the mouse infection, read-out: MIC): 0.025 µg/mL; MIC (P. cepacia GIFU 518; 10^6 cells/ml, Gram -, read-out: MIC): 0.39 µg/mL; MIC (F. varium KYA 8501): 1.56 µg/mL; MIC [11]: 0.05 µg/mL; MIC [13]: 0.39 µg/mL; MIC (K. pneumoniae 1-220S): 0.05 µg/mL; MIC [14]: 0.39 µg/mL; MIC (B. fragilis 0558): 0.39 µg/mL; MIC [15]: 0.025 µg/mL
